The test system of the assay is LPS-induced TNF-α expression. Nature of the assay: LPS-induced TNF-α expression in murine peritoneal macrophages (ELISA). Format: cell-based. To be noted: Mus musculus, Peritoneal macrophage. How it is done:
C57BL/6 mice were injected intraperitoneally with 3% thioglycollate, and their peritoneal macrophages were collected 72 h later. Macrophages were cultured in DMEM supplemented with 10% FBS and 50 μg/mL gentamicin at 37° C. in a humidified atmosphere of 5% CO2. […] Cell lysates were subjected to SDS-PAGE for detection of COX2 and iNOS expression. The presence of nitrite (a metabolite of NO) in the culture medium was analyzed by the Griess assay (Sigma-Aldrich), as previously described (16).
(In general: ELISA stands for enzyme-linked immunosorbent assay.)

[1] abbreviates: 2 h, read-out: Inhibition of 2 h-TNF-α (%).
[2] abbreviates: 4 h, read-out: Inhibition of 4 h-TNF-α (%).

Like-named read-outs stand apart in the source and are kept apart here.

As usually defined, the inhibition is the share of the control response that was lost under treatment.

On to `C=C(CC[C@@H](C)[C@H]1CC[C@H]2C3=C(C(=O)C[C@]12C)[C@@]1(C)CC[C@@H](O)[C@@H](C)C1C[C@@H]3O)C(C)C(=O)O` (stereo partly shown) [No. 13, Camphoratin B], for which the inhibition at 10 µM under setting [1] was 40.7% and the inhibition at 10 µM under setting [2] was determined as 87%.

As to `CC(C)[C@@H](C)/C=C/[C@@H](C)[C@H]1CC[C@@H]2[C@]1(C)CC[C@H]1[C@]23C=C[C@]2(C[C@@H](O)CC[C@]12C)OO3` [No. 25, Ergosterol peroxide], the inhibition at 10 µM is less than 0% under setting [1] and less than 0% under setting [2].

Consider `C=C(CC[C@@H](C)[C@H]1CC[C@H]2C3=C(C(=O)C[C@]12C)[C@@]1(C)CCC(=O)[C@@H](C)[C@@H]1CC3)C(C)C(=O)O` (stereo partly shown) [No. 7, Antcin A], for which the inhibition at 10 µM by setting is: under setting [1], 40.6%; under setting [2], 90.7%.

For the compound `C=C(CC[C@@H](C)[C@H]1CCC2C3=C(C(=O)C[C@@]21C)[C@@]1(C)CCC(=O)[C@@H](C)C1C[C@H]3O)C(C)C(=O)O` (stereo partly shown) [No. 17, Camphoratin G], the inhibition at 10 µM under setting [1] was found to be 68.8% and the inhibition at 10 µM under setting [2] amounted to 22.5%.

As to `C=C(CC[C@@H](C)[C@H]1CCC2C3=C(C(=O)[C@H](O)[C@@]21C)[C@@]1(C)CCC(=O)[C@@H](C)C1CC3=O)C(C)C(=O)OC` (stereo partly shown) [No. 22, Camphoratin N], the inhibition at 10 µM by setting is: under setting [1], 58.3%; under setting [2], 89%.

Consider `C=C(CC[C@@H](C)[C@H]1CC[C@@]2(O)C3=C(C(=O)C[C@]12C)[C@@]1(C)CCC(=O)[C@@H](C)C1C[C@@H]3O)C(C)C(=O)O` (stereo partly shown) [No. 14, Camphoratin D], for which the inhibition at 10 µM under setting [1] was found to be 65.8% and the inhibition at 10 µM under setting [2] was 81.7%.

Take `C=C(CC[C@@H](C)[C@H]1CCC2C3=C(C(=O)C[C@@]21C)[C@@]1(C)CCC(=O)[C@@H](C)C1C[C@@H]3O)C(C)C(=O)OC` (stereo partly shown) [No. 16, Camphoratin F]: the inhibition at 10 µM is 38.2% under setting [1] and 80.2% under setting [2].

Take `C=C(CC[C@@H](C)[C@H]1CC[C@H]2C3=C(C(=O)C[C@]12C)[C@@]1(C)CCC(=O)[C@@H](C)[C@@H]1CC3)C(C)C(=O)OC` (stereo partly drawn) [No. 26, Methyl-4α-methylergost-8,24(28)-diene-3,11-dion-26-oate]: the inhibition at 10 µM is 49.3% under setting [1] and less than 0% under setting [2].

On to `C=C(CC[C@@H](C)[C@H]1CCC2C3=C(C(=O)C[C@@]21C)[C@@]1(C)CC[C@@H](O)[C@@H](C)C1CC3=O)C(C)C(=O)O` (stereo partly shown) [No. 3, Zhankuic acid B], for which the inhibition at 10 µM under setting [1] worked out at 68.9% and the inhibition at 10 µM under setting [2] was determined as 88.6%.

As for `C=C(CC[C@@H](C)[C@H]1CC[C@H]2C3=C(C(=O)[C@H](O)[C@]12C)[C@@]1(C)CC[C@@H](OC=O)[C@@H](C)[C@@H]1CC3)C(C)C(=O)O` (stereo partly shown) [No. 11, Antcin M 3-O-formate], the inhibition at 10 µM was less than 0% under setting [1] and 88.3% under setting [2].

On to `C=C(CC[C@@H](C)[C@H]1CCC2C3=C(C(=O)C[C@@]21C)[C@@]1(C)CC[C@@H](O)[C@@H](C)C1CC3=O)C(C)C(=O)OC` (stereo partly shown) [No. 15, Camphoratin E], for which the inhibition at 10 µM worked out at 78% under setting [1] and 89.4% under setting [2].

With `C=C(CC[C@@H](C)[C@H]1CC[C@H]2C3=C(C(=O)C[C@]12C)[C@@]1(C)CCC(=O)[C@@H](C)[C@@H]1CC3=O)C(C)C(=O)OC` (stereo partly shown) [No. 2, Zhankuic acid A methyl ester], the inhibition at 10 µM worked out at 51.6% under setting [1] and 80.3% under setting [2].

As to `C=C(CC[C@@H](C)[C@H]1CCC2C3=C(C(=O)C[C@@]21C)[C@@]1(C)CCC(=O)[C@@H](C)C1CC3=O)C(C)C(=O)OCC` (stereo partly shown) [No. 6, Zhankuic acid D], the inhibition at 10 µM by setting is: under setting [1], 67.1%; under setting [2], 54.8%.

As to `C=C(CCC(C)C1CCC2C3=C(C(=O)C[C@@]21C)[C@@]1(C)CCC(=O)[C@@H](C)C1CC3=O)C(C)C(=O)O` (stereo in doubt) [No. 1, Zhankuic acid A], the inhibition at 10 µM under setting [1] was 42.4% and the inhibition at 10 µM under setting [2] stood at 85.6%.

`C=C(CC[C@@H](C)[C@H]1CC[C@@H]2C3=C(C(=O)C[C@@]21C)[C@@]1(C)CCC(=O)[C@@H](C)C1CC3)C(C)C(=O)OC` (stereo partly shown) [No. 19, Camphoratin J]: the inhibition at 10 µM came out at 73.4% under setting [1] and 90.2% under setting [2].

In the case of `C=C(CC[C@@H](C)[C@H]1CC[C@H]2C3=C(C(=O)C[C@]12C)[C@@]1(C)CC[C@@H](O)[C@](C)(O)[C@@H]1C[C@@H]3O)C(C)C(=O)O` (stereo partly shown) [No. 10, Antcin K], the inhibition at 10 µM under setting [1] was determined as 49.4% and the inhibition at 10 µM under setting [2] came out at 88.5%.

For the compound `C=C(CC[C@@H](C)[C@H]1CC[C@H]2C3=C(C(=O)[C@H](O)[C@]12C)[C@@]1(C)CC[C@@H](O)[C@@H](C)C1C[C@@H]3O)C(C)C(=O)O` (stereo partly shown) [No. 12, Camphoratin A], the inhibition at 10 µM reads like this: under setting [1], 22.8%; under setting [2], 29.9%.

Turning to `C=C(CC[C@@H](C)[C@H]1CC[C@H]2C3=C(C(=O)[C@H](O)[C@]12C)[C@@]1(C)CC[C@@H](O)[C@@H](C)[C@@H]1CC3=O)C(C)C(=O)O` (stereo partly shown) [No. 4, Zhankuic acid C], the inhibition at 10 µM runs as follows: under setting [1], 67.5%; under setting [2], 88.8%.

In the case of `CC(=O)CC[C@@H](C)[C@H]1CCC2C3=C(C(=O)C[C@@]21C)[C@@]1(C)CCC(=O)[C@@H](C)C1CC3=O` (stereo partly shown) [No. 21, Camphoratin L], the inhibition at 10 µM by setting is: under setting [1], 73.9%; under setting [2], 30.6%.

As for `C=C(CC[C@@H](C)[C@H]1CC[C@H]2C3=C(C(=O)[C@H](O)[C@]12C)[C@@]1(C)CC[C@@H](OC=O)[C@@H](C)[C@@H]1CC3=O)C(C)C(=O)O` (stereo partly shown) [No. 5, Zhankuic acid C 3-O-formate], the inhibition at 10 µM under setting [1] is 1.62% and the inhibition at 10 µM under setting [2] stood at 45.3%.

Take `C=C(CC[C@@H](C)[C@H]1CCC2C3=C(C(=O)C[C@@]21C)[C@@]1(C)CCC(=O)[C@@H](C)C1C[C@@H]3O)C(C)C(=O)O` (stereo partly shown) [No. 9, Antcin C]: the inhibition at 10 µM runs as follows: under setting [1], 43.6%; under setting [2], 43.1%.

Turning to `C=C(CC[C@@H](C)[C@H]1CC[C@H]2C3=C(C(=O)[C@H](O)[C@]12C)[C@@]1(C)CC[C@@H](O)[C@@H](C)[C@@H]1CC3=O)C(C)C(=O)OC` (stereo partly shown) [No. 27, Methyl antcinate H], the inhibition at 10 µM came to 79.8% under setting [1] and 91.5% under setting [2].

Turning to `C=C(CC[C@@H](C)[C@H]1CCC2C3=C(C(=O)C[C@@]21C)[C@@]1(C)CCC(=O)[C@@H](C)C1CC3)C(C)C(=O)OC` (stereo partly shown) [No. 8, Antcin A methyl ester], the inhibition at 10 µM runs as follows: under setting [1], 19.4%; under setting [2], 85.2%.

Values taken from patent publication US20150374718A1, “Zhankuic Acid A and Analogs thereof and Their Use as an Anti-Inflammatory Agent” (National Cheng Kung University, priority 2014, published 2015).
